Assay results reported in publication PMC9495681, “Examining Topoisomers of a Snake-Venom-Derived Peptide for Improved Antimicrobial and Antitumoral Properties” (Biomedicines, 2022).
Converted amounts (≈) assume the structure as drawn. Peptide text beside a SMILES is read from it.

What was measured:
human erythrocytes = experiment: Hemolytic activity; type: cell-based; conditions: up to 100 μM; 4% (v/v) human erythrocytes in PBS, 30 min at 37 °C, OD 540 nm, triplicate
Experimental: Fresh human blood (10 mL) was collected in EDTA tubes and centrifuged at 1000× g for 10 min at 4 °C. After plasma removal, the pellet containing the erythrocytes was washed 3× with phosphate-buffered saline (PBS) and resuspended to an 8% (v/v) suspension in PBS. Then, 100 μL of the suspension was added to a final concentration of 4% (v/v) to microfuge tubs containing 2-fold serially diluted peptides (0.2–100 μM). The suspension was incubated for 30 min at 37 °C with agitation, then centrifuged for 2 min at 1000× g. The supernatant was transferred to 96-well plates, and hemoglobin was measured by OD at 540 nm in a Synergy HTX plate reader (BioTek). Positive and negative controls were 1% (v/v) Triton X-100 and untreated erythrocytes (4% v/v in PBS), respectively. Measurements were done in triplicate. Hemolysis was calculated as:(2) % Hemolysis=[OD540peptide]−[OD540PBS]/[OD540Triton]−[OD540PBS]·100

1BR3G human fibroblasts = experiment: Peptide cytotoxicity (Cell Titer Blue viability); type: cell-based; conditions: 24 h treatment, medium with 2% FBS, Cell Titer Blue fluorescence, triplicate
Excerpt: (§1) Human HeLa S3 (cervix epithelial carcinoma), leukemia Jurkat E6.1 (T-cell lineage), U937 (histiocytic lymphoma), THP-1 (acute monocytic leukemia), and 1BR3G human fibroblasts were obtained from the Cell Lines Repository of the Institut Municipal d’Investigació Medica (Barcelona, Spain). BxPC3 (pancreas adenocarcinoma), A549 (lung carcinoma), SH-Sy5Y (neuroblastoma), Panc1 (epithelioid carcinoma), 786-O (renal cell adenocarcinoma), and HT29 (colorectal adenocarcinoma) were obtained from the Integrative Biomedical Materials and Nanomedicine lab at UPF (Barcelona, Spain). HeLa S3, Jurkat E6.1, U937, THP-1, Panc1, and 786-O were cultured in Roswell Park Memorial Institute medium (RPMI) supplemented with 10% fetal bovine serum (FBS) and 1% penicillin/streptomycin solution and maintained at 37 °C in a humidified atmosphere with 5% of CO2. 1BR3G, BxPC3, A549, and HT29 were cultured in Dulbecco’s Modified Eagle’s Medium (DMEM) supplemented with 10% FBS and 1% penicillin/streptomycin solution and maintained at 37 °C in a humidified atmosphere with 5% of CO2. SH-Sy5Y was cultured in DMEM supplemented with 15% FBS and 1% penicillin/streptomycin and maintained at 37 °C in a humidified atmosphere with 5% of CO2. Cultures were maintained at 10^5–10^6 cell/mL densities. For 1BR3G human fibroblasts, BxPC3, A549, SH-Sy5Y, Panc1, 786-O, and HT29 were split every time they reached 80–90% of confluence after harvesting with PBS and trypsin.
(§2) About 60,000 cells were added to different microfuge tubes containing 2-fold serial dilution of the peptide, with a final concentration in the range between 0.1–100 μM in RPMI containing 2% of FBS. After 30 min incubation at 37 °C and 5% of CO2, […] of medium containing approximately 10,000 treated cells were transferred to a 96-well plate. Then, 15 μL of Cell Titer Blue dye (Promega, Madison, WI, USA) was added, and plates were reincubated for 24 h. Fluorescence was read at 4 and 24 h after dye addition in a Synergy HTX (BioTek, Winooski, VT, USA) reader, with λexc = 560 nm and λem = 620 nm. In the case of adherent cultures, 5000 cells/well were seeded in 96-well plates. After 24 h incubation at 37 °C and 5% of CO2, the medium was removed, and a new medium with 2% of FBS containing the various 2-fold dilution of the peptides was added. After a further 30 min, 15 μL of Cell Titer Blue dye was added to each well, and the measurement was done as above. Relative viability was calculated relative to a cell with only 2% FBS in the corresponding medium as a control (100% viability). All assays were conducted in triplicate.

[1] = tested on: A. baumannii (ATCC 15308); experiment: Minimal inhibitory concentration (MIC), broth microdilution; type: cell-based; conditions: Mueller Hinton Broth, 5 × 10^5 CFU/mL, 0.04% BSA and 0.002% acetic acid, 20–22 h at 37 °C, duplicate
Experimental: (§3) Assays were performed on three Gram-negative bacteria: E. coli (BW25113, Coli Genetic Stock Center), A. baumannii (ATCC 15308, CECT, Valencia, Spain), and Pseudomonas sp. (ATCC15915, CECT). The minimal inhibitory concentration (MIC) of each peptide was determined as described by Wiegand et al.. Peptide stocks in water were added to polypropylene 96-well plates (Greiner, Frickenhausen, Germany) and serially diluted from 100 to 0.2 μM. Fresh bacteria were incubated at 37 °C in Mueller Hinton Broth (MHB, Condalab, Torrejón de Ardoz, Spain) up to exponential growth and diluted to a final inoculum of 5 × 10^5 CFU/mL. BSA and acetic acid at 0.04% (w/v) and 0.002% (v/v) final concentration, respectively, were added to avoid peptide self-aggregation. Plates were incubated for 20–22 h at 37 °C. Each peptide was tested in duplicate. MIC values were the lowest peptide concentration where bacterial growth was not detected.

[2] = tested on: Pseudomonas sp. (ATCC15915); experiment: as above; type: cell-based; conditions: Mueller Hinton Broth, 5 × 10^5 CFU/mL, 0.04% BSA and 0.002% acetic acid, 20–22 h at 37 °C, duplicate
Experimental: as §3

E. coli (BW25113) = experiment: as above; type: cell-based; conditions: Mueller Hinton Broth, 5 × 10^5 CFU/mL, 0.04% BSA and 0.002% acetic acid, 20–22 h at 37 °C, duplicate
Experimental: as §3

[3] = tested on: BxPC3, A549, Panc1, 786-O, and HT29; experiment: Peptide cytotoxicity (Cell Titer Blue viability), non-leukemia cell lines of Figure 2; type: cell-based, Human; conditions: peptide treatment 24 h, triplicate, read-out: IC50, other cancer cell lines (non-leukemia, other than SH-Sy5Y)
Excerpt: Human HeLa S3 (cervix epithelial carcinoma), leukemia Jurkat E6.1 (T-cell lineage), U937 (histiocytic lymphoma), THP-1 (acute monocytic leukemia), and 1BR3G human fibroblasts were obtained from the Cell Lines Repository of the Institut Municipal d’Investigació Medica (Barcelona, Spain). BxPC3 (pancreas adenocarcinoma), A549 (lung carcinoma), SH-Sy5Y (neuroblastoma), Panc1 (epithelioid carcinoma), 786-O (renal cell adenocarcinoma), and HT29 (colorectal adenocarcinoma) were obtained from the Integrative Biomedical Materials and Nanomedicine lab at UPF (Barcelona, Spain). HeLa S3, Jurkat E6.1, U937, THP-1, Panc1, and 786-O were cultured in Roswell Park Memorial Institute medium (RPMI) supplemented with 10% fetal bovine serum (FBS) and 1% penicillin/streptomycin solution and maintained at 37 °C in a humidified atmosphere with 5% of CO2. […]
About 60,000 cells were added to different microfuge tubes containing 2-fold serial dilution of the peptide, with a final concentration in the range between 0.1–100 μM in RPMI containing 2% of FBS. […] Fluorescence was read at 4 and 24 h after dye addition in a Synergy HTX (BioTek, Winooski, VT, USA) reader, with λexc = 560 nm and λem = 620 nm. […] Relative viability was calculated relative to a cell with only 2% FBS in the corresponding medium as a control (100% viability). […]

SH-Sy5Y (neuroblastoma) = experiment: Peptide cytotoxicity (Cell Titer Blue viability); type: cell-based, Human; conditions: peptide treatment 24 h, medium with 2% FBS, Cell Titer Blue fluorescence, triplicate
Excerpt: as §1, §2

HeLa S3 = experiment: Peptide cytotoxicity (Cell Titer Blue viability); type: cell-based, Human; conditions: peptide treatment 24 h, medium with 2% FBS, Cell Titer Blue fluorescence, triplicate
Excerpt: as §1, §2

U937 = experiment: Peptide cytotoxicity (Cell Titer Blue viability); type: cell-based, Human; conditions: peptide treatment 24 h, medium with 2% FBS, Cell Titer Blue fluorescence, triplicate
Excerpt: as §1, §2

THP-1 = experiment: Peptide cytotoxicity (Cell Titer Blue viability); type: cell-based, Human; conditions: peptide treatment 24 h, medium with 2% FBS, Cell Titer Blue fluorescence, triplicate
Excerpt: as §1, §2

Jurkat E6.1 = experiment: Peptide cytotoxicity (Cell Titer Blue viability); type: cell-based, Human; conditions: peptide treatment 24 h, medium with 2% FBS, Cell Titer Blue fluorescence, triplicate
Excerpt: as §1, §2

| Compound | Hemolytic effect (in words) (human erythrocytes) | IC50 (cell viability) human fibroblast 1BR3G (1BR3G human fibroblasts) | MIC A. baumannii [1] [µM] | MIC Pseudomonas sp. [2] [µM] | MIC E. coli (E. coli (BW25113)) [µM] | IC50 [3] [nM] | IC50 (SH-Sy5Y (neuroblastoma)) [nM] | IC50 (HeLa S3) [nM] | IC50 (U937) [nM] | IC50 (THP-1) [nM] | IC50 (Jurkat E6.1) [nM] |
| --- | --- | --- | --- | --- | --- | --- | --- | --- | --- | --- | --- |
| CC[C@H](C)[C@H](NC(=O)[C@H](CCCCN)NC(=O)[C@H](CCCCN)NC(=O)[C@H](CC(C)C)NC(=O)[C@H](CCCNC(=N)N)NC(=O)[C@H](CCCCN)NC(=O)[C@@H](N)CCCCN)C(=O)N[C@@H](Cc1ccccc1)C(=O)N[C@@H](CCCCN)C(=O)N[C@@H](CCCCN)C(=O)N1CCC[C@H]1C(=O)N[C@@H](CCSC)C(=O)N[C@H](C(=O)N[C@H](C(=O)NCC(=O)N[C@H](C(=O)N[C@H](C(=O)N[C@H](C(=O)N1CCC[C@H]1C(=O)N[C@@H](Cc1ccccc1)C(N)=O)[C@@H](C)CC)[C@@H](C)O)C(C)C)[C@@H](C)CC)C(C)C [Ctn[15-34]] (H-KKRLKKIFKKPMVIGVTIPF-NH2) | totally nonhemolytic | ≈ 14.32 μM | 0.78 (≈ 1.85 µg/mL) | <0.05 | <0.005 | – | – | – | – | – | – |
| CC[C@H](C)[C@H](NC(=O)[C@H](CCCCN)NC(=O)[C@H](CCCCN)NC(=O)[C@H](CC(C)C)NC(=O)[C@H](CCCNC(=N)N)NC(=O)[C@H](CCCCN)NC(=O)[C@H](CCCCN)NC(=O)[C@@H](NC(=O)[C@H](CO)NC(=O)[C@H](CCCCN)NC(=O)[C@H](CCCCN)NC(=O)[C@@H](NC(=O)[C@H](CCCCN)NC(=O)[C@H](CCCCN)NC(=O)[C@H](Cc1ccccc1)NC(=O)[C@H](Cc1ccccc1)NC(=O)[C@H](CCCCN)NC(=O)[C@H](CCCCN)NC(=O)[C@H](Cc1ccccc1)NC(=O)[C@H](CCCNC(=N)N)NC(=O)[C@@H](N)CCCCN)C(C)C)C(C)C)C(=O)N[C@@H](Cc1ccccc1)C(=O)N[C@@H](CCCCN)C(=O)N[C@@H](CCCCN)C(=O)N1CCC[C@H]1C(=O)N[C@@H](CCSC)C(=O)N[C@H](C(=O)N[C@H](C(=O)NCC(=O)N[C@H](C(=O)N[C@H](C(=O)N[C@H](C(=O)N1CCC[C@H]1C(=O)N[C@@H](Cc1ccccc1)C(N)=O)[C@@H](C)CC)[C@@H](C)O)C(C)C)[C@@H](C)CC)C(C)C [Ctn] (H-KRFKKFFKKVKKSVKKRLKKIFKKPMVIGVTIPF-NH2) | – | – | 0.78 (≈ 3.24 µg/mL) | <0.05 | – | ≥ 10000 | ~2610 | ~3470 | < 1000 | < 1000 | < 1000 |
